Results: PMC3091225 (The Journal of Biological Chemistry, 2011)

Key:
Assay in all cases: direct fluorescence titration of TBG into fluorophore
Format in all cases: binding
[1] = biological target: T1, TBG (wild-type, native, intact reactive loop) (Homo sapiens, UniProt P05543)
T1 sequence (P05543 21-415): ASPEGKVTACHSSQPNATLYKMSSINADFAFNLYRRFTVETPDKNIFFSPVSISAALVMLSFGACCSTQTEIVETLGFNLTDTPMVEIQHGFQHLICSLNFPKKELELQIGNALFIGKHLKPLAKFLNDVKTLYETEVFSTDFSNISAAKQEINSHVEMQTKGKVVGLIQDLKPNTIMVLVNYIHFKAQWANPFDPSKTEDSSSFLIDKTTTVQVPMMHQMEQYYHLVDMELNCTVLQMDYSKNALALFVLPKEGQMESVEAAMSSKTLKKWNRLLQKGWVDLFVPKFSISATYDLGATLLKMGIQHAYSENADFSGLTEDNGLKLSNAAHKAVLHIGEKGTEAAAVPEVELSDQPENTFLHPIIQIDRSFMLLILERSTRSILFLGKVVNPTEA

[2] = biological target: T2, cleaved TBG (wild-type, reactive loop cleaved) (Homo sapiens, UniProt P05543, DEL124-126/K123A)
T2 sequence (P05543 with tags, fused parts or gaps K123A/DEL124-126): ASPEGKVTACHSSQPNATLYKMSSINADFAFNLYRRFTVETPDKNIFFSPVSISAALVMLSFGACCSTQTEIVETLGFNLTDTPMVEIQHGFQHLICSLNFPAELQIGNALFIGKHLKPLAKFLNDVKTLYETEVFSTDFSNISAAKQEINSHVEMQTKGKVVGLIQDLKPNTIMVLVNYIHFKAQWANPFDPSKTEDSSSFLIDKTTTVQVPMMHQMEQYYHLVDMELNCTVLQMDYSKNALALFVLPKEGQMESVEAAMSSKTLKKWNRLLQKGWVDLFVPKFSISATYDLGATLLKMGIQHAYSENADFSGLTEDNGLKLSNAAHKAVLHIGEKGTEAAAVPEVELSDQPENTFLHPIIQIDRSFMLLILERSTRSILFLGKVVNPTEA

[3] = biological target: T3, TBG (wild-type, native, intact reactive loop) (Homo sapiens, UniProt P05543, DEL124-126/K123A)
T3 sequence (P05543 with tags, fused parts or gaps K123A/DEL124-126): T2 sequence (P05543 with tags, fused parts or gaps K123A/DEL124-126)

O=C(N[C@@H](Cc1cc(I)c(Oc2cc(I)c(O)c(I)c2)c(I)c1)C(=O)O)c1ccc2c(c1)C(=O)OC21c2ccc(O)cc2Oc2cc(O)ccc21 [T4–5-CF]
Kd [1]: < 0.1 nM

O=C(N[C@@H](Cc1cc(I)c(Oc2cc(I)c(O)c(I)c2)c(I)c1)C(=O)O)c1ccc2c(c1)C1(OC2=O)c2ccc(O)cc2Oc2cc(O)ccc21 [T4–6-CF]
Kd [2]: 50.7 ± 3.6 nM | Kd [3]: 24.9 ± 1.8 nM
